Experimental data reported in paper PMC7430049 (Journal of medicinal chemistry, 2019).

Tests used:
human recombinant G9a [1] = target: T1, human recombinant G9a (Homo sapiens, UniProt Q96KQ7); experiment: G9a inhibition, peptide-based AlphaLISA assay; assay type: biochemical; details: for Hill slope of the concentration–response inhibition curve of G9a: AlphaLISA, four-parameter fit; for fold reduction of G9a inhibitory activity compared to 12a: relative to 12a, from Table 1 IC50
T1 sequence (Q96KQ7 1-1210): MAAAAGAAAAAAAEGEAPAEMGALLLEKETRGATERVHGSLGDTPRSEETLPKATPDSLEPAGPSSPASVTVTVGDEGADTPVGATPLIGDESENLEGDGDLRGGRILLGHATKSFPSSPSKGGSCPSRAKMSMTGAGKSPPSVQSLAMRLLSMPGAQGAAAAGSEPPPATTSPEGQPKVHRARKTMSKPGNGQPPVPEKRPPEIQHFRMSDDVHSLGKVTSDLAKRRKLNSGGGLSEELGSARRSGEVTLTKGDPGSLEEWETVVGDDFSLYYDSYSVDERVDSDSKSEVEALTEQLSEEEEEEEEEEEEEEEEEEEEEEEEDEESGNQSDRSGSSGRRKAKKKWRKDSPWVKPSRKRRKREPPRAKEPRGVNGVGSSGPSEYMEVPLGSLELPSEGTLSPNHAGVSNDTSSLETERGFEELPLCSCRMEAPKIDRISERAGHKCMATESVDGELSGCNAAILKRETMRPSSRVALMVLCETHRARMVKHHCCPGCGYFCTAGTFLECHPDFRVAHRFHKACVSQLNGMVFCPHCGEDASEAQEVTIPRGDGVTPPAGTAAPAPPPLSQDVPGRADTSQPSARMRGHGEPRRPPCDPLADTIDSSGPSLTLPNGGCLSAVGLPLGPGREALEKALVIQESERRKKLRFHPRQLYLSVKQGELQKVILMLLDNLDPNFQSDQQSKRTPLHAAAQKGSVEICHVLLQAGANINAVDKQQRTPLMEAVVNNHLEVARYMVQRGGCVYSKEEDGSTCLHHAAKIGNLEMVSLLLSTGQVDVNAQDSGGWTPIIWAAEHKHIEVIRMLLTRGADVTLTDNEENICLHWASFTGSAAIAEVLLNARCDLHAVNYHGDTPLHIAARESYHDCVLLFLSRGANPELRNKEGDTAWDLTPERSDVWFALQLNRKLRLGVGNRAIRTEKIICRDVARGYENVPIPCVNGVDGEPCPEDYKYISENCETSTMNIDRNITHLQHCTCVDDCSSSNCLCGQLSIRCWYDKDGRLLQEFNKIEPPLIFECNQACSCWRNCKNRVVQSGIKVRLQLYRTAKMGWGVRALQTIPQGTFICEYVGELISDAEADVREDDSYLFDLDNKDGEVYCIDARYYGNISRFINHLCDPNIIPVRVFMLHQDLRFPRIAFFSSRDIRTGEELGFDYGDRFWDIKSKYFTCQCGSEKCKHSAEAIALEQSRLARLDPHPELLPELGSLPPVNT

human recombinant KDM4A = target: T2, human recombinant KDM4A (Homo sapiens, UniProt O75164); experiment: KDM4A/JMJD2A inhibition, AlphaLISA assay; assay type: biochemical; details: tested at 10 and 25 μM
T2 sequence (O75164 1-1064): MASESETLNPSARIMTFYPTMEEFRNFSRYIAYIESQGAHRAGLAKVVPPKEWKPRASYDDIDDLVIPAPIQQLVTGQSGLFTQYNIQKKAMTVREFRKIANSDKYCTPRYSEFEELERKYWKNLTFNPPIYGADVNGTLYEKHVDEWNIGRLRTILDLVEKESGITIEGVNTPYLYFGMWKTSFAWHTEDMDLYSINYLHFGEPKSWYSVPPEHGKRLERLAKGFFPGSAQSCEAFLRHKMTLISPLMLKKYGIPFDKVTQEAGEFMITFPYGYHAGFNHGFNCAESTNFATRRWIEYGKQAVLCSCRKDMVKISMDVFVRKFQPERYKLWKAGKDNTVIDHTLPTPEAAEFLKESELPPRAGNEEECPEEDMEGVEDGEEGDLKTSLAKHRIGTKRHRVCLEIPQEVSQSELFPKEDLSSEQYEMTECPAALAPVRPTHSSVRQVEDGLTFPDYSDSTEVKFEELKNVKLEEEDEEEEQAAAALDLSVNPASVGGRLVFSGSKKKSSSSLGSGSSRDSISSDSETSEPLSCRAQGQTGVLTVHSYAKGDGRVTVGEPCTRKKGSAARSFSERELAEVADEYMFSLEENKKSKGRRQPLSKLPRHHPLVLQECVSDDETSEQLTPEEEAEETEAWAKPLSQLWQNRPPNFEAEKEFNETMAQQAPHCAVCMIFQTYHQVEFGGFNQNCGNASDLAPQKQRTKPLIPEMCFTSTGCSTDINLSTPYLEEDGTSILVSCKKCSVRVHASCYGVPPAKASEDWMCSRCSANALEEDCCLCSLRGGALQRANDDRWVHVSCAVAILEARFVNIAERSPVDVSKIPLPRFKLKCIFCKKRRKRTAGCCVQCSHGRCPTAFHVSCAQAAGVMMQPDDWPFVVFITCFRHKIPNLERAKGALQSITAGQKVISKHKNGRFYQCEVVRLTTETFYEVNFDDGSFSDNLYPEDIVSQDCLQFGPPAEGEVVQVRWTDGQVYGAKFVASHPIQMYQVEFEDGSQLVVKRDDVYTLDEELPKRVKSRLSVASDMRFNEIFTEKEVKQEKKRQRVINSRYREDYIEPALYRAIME

human recombinant PRMT1 = human recombinant PRMT1 (Homo sapiens, UniProt Q99873); experiment: PRMT1 inhibition, AlphaLISA assay; assay type: biochemical; details: tested at 10 and 25 μM
human recombinant PRMT1, sequence (Q99873 whole entry): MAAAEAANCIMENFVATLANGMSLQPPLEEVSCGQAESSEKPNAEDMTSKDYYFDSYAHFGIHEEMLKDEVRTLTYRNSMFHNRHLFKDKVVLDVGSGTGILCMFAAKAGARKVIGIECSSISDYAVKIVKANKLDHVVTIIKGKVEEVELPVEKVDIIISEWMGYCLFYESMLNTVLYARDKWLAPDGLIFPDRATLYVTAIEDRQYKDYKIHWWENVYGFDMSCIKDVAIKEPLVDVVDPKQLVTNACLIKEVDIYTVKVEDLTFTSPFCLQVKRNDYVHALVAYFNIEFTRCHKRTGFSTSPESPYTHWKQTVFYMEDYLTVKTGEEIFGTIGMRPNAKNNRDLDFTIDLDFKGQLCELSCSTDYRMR

human recombinant PRMT3 = human recombinant PRMT3 (Homo sapiens, UniProt O60678); experiment: PRMT3 inhibition, AlphaLISA assay; assay type: biochemical; details: tested at 10 and 25 μM
human recombinant PRMT3, sequence (O60678 whole entry): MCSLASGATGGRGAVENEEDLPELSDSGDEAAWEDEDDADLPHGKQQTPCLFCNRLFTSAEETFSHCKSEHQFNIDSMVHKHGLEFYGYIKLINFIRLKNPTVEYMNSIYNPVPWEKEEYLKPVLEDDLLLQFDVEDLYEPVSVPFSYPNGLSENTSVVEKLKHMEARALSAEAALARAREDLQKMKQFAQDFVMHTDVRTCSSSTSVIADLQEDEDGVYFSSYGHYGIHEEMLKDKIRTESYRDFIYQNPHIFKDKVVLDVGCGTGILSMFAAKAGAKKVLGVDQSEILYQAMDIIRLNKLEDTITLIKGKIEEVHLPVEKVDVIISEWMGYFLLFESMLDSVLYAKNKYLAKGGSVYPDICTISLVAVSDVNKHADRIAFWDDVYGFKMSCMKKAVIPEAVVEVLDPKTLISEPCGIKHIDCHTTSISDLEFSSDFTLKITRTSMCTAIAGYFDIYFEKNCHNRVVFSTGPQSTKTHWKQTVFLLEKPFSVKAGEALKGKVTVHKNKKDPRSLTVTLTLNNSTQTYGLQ

human recombinant p300 = human recombinant p300 (Homo sapiens, UniProt Q09472); experiment: KAT3B/p300 inhibition, AlphaLISA assay; assay type: biochemical; details: tested at 10 and 25 μM
human recombinant p300, sequence (Q09472 whole entry): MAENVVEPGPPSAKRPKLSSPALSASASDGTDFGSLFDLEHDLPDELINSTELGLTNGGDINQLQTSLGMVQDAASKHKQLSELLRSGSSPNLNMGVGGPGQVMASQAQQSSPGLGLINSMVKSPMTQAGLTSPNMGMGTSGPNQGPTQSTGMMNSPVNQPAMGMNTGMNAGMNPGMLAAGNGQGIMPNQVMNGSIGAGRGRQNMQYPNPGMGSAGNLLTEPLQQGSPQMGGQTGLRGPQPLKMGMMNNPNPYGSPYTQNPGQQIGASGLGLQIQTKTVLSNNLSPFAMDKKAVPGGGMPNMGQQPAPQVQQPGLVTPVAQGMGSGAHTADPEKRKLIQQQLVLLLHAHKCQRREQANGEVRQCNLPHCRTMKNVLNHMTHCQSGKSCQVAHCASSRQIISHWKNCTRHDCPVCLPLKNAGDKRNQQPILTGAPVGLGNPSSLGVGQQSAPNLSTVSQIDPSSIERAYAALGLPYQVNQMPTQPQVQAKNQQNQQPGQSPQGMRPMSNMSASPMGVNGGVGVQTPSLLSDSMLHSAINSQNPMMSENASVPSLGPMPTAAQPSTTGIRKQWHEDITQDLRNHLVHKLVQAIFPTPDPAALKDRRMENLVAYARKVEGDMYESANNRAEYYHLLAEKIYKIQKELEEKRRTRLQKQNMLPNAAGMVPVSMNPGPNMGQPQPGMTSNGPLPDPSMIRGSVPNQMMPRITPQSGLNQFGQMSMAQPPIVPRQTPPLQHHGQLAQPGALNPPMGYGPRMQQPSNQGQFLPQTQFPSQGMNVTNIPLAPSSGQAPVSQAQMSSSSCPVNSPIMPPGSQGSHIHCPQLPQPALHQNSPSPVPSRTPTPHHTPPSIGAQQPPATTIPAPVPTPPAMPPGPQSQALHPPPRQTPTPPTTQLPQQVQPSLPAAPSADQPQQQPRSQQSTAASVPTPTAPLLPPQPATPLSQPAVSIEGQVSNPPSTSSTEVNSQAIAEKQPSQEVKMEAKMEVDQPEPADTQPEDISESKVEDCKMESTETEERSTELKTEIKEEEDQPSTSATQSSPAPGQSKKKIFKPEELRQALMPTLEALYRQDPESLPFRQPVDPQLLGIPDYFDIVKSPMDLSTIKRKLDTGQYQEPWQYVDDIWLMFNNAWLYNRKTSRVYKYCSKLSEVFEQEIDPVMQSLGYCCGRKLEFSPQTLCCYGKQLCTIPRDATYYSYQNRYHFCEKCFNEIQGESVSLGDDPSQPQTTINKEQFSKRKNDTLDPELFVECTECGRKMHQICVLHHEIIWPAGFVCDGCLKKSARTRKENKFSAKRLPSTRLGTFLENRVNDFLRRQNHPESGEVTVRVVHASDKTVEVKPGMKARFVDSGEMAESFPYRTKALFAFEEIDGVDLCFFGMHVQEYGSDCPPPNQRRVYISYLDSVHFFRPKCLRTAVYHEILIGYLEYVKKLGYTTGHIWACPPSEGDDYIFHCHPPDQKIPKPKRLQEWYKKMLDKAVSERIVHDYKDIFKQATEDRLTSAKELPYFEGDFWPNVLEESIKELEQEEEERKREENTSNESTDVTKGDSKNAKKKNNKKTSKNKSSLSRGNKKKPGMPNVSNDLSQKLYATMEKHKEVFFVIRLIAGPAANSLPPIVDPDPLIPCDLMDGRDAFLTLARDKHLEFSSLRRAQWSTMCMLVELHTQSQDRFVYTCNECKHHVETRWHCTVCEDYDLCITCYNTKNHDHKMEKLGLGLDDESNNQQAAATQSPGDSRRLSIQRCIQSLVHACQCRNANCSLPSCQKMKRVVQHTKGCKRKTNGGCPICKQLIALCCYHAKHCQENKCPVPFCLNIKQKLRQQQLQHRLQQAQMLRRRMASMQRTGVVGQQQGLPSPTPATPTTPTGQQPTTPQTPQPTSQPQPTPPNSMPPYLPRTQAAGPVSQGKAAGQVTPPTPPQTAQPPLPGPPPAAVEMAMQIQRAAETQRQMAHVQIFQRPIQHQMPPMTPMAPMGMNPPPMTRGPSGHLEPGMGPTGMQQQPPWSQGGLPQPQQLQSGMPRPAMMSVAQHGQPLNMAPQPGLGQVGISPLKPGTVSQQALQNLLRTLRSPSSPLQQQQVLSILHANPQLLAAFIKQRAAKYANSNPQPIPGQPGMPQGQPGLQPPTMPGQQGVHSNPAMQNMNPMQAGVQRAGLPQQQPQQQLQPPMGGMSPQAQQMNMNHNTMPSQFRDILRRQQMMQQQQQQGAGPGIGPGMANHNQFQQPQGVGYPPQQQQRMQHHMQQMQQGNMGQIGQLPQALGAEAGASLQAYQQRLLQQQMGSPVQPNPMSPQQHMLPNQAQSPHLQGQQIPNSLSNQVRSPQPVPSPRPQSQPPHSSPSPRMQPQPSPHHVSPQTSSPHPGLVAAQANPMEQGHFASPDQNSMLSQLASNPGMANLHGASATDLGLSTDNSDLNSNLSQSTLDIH

human DNMT3a = human DNMT3a (Homo sapiens, UniProt Q9Y6K1); experiment: HotSpot DNMT activity assay; assay type: biochemical; details: lambda DNA substrate
human DNMT3a, sequence (Q9Y6K1 2-912 limits assumed): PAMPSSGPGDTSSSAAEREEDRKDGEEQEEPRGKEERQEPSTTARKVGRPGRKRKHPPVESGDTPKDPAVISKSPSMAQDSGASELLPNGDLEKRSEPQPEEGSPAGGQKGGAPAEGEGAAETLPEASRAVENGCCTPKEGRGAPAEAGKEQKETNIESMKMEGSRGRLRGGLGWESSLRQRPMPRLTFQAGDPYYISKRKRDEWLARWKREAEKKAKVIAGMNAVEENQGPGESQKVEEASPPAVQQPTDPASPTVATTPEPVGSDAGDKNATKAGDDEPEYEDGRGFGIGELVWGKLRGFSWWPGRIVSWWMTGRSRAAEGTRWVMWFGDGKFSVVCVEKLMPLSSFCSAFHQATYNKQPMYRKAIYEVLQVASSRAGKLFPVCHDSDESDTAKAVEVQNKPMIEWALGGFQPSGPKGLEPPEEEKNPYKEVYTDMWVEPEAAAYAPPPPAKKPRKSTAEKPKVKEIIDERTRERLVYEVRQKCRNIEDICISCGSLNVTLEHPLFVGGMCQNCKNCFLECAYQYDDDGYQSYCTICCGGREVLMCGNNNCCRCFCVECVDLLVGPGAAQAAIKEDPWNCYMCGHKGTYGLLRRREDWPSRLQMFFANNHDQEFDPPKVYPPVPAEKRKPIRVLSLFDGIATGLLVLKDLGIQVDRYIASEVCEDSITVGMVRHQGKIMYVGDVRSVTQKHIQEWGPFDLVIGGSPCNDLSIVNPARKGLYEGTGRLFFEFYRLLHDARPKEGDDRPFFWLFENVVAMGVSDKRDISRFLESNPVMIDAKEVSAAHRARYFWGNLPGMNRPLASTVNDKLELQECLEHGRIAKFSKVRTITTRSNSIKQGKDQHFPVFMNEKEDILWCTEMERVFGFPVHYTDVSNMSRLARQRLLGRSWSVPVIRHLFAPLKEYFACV

[2] = target: full-length human recombinant DNMT3b (Homo sapiens, UniProt Q9UBC3); experiment: HotSpot DNMT activity assay; assay type: biochemical; details: lambda DNA substrate
G9a [3] = target: T3, G9a (Homo sapiens, UniProt Q96KQ7); experiment: Surface plasmon resonance; assay type: binding
T3 sequence (Q96KQ7 913-1193 limits assumed): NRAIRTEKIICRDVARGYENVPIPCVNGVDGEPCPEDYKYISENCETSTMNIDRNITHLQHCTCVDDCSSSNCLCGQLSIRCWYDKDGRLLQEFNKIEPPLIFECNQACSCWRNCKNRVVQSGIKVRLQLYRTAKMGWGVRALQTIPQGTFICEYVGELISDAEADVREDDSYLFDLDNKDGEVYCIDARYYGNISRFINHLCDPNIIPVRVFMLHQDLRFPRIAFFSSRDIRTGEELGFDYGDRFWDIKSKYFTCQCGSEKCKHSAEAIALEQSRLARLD

human recombinant G9a [4] = target: T1, human recombinant G9a; experiment: Mechanism of action kinetics, AlphaLISA G9a assay, Lineweaver-Burk plots; assay type: biochemical; details: fixed H3 peptide 100 nM, varying SAM
[5] = Chemical stability in PBS, HPLC analysis; assay type: physicochemical; details: exposure to PBS over 72 h
MCF-7 cells = experiment: MTT cell viability assay, MCF-7; assay type: cell-based, human; details: 0.05–50 μM; 24, 48, 72 h
MDA-MB-231 cells = experiment: MTT cell viability assay, MDA-MB-231; assay type: cell-based, human; details: up to 5 μM, even after 72 h, vs vehicle
U-343 cells = experiment: MTT cell viability assay, U-343; assay type: cell-based, human; details: up to 5 μM, even after 72 h, vs vehicle
[6] = system: H3K9me2 levels in MCF-7 cells; experiment: Western blot of H3K9me2 in histone extracts, MCF-7; assay type: cell-based, human; details: 0.5 and 5 μM, 48 and 72 h
[7] = system: H3K9me2 levels in MDA-MB-231 cells; experiment: Western blot of H3K9me2 in histone extracts, MDA-MB-231; assay type: cell-based, human; details: 0.5 and 5 μM, 48 and 72 h
[8] = system: H3K9me2 levels in U-343 cells; experiment: Western blot of H3K9me2 in histone extracts, U-343; assay type: cell-based, human; details: 0.5 and 5 μM, 48 and 72 h
[9] = system: lysine N-methyltransferase SUV39H1(H320R); details: up to a 10 μM concentration; cited from earlier work
[10] = system: protein arginine methyltransferase 1 (PRMT1); details: up to a 10 μM concentration; cited from earlier work
G9a [11] = target: T3, G9a; details: read-out: Morrison Ki, G9a; cited from earlier work
G9a [12] = target: T3, G9a; details: read-out: G9a IC50 (ECSD assay); ECSD assays; cited from earlier work
[13] = Parallel artificial membrane permeability assay; assay type: in vitro ADME; details: PAMPA, pH 7.4
[14] = system: other lysine and arginine methyltransferases; details: up to a 10 μM concentration; cited from earlier work
in vitro = details: PAMPA, pH 7.4
GLP over G9a = details: biochemical assays; cited from earlier work

COc1cc2c(cc1OCCCN1CCCC1)N=C(C1CCCCC1)CN=C2NC1CCN(C(C)C)CC1 [12a, 2-Cyclohexyl-N-(1-isopropylpiperidin-4-yl)-7-methoxy-8-(3-(pyrrolidin-1-yl)propoxy)-3H-benzo[e][1,4]diazepin-5-amine]
Hill slope of the concentration–response inhibition curve of G9a (human recombinant G9a [1]): −2.7
JMJD2A inhibition (in words) (human recombinant KDM4A): only poorly (or not at all) inhibited
PRMT1 inhibition (in words) (human recombinant PRMT1): only poorly (or not at all) inhibited
PRMT3 inhibition (in words) (human recombinant PRMT3): only poorly (or not at all) inhibited
p300 inhibition (in words) (human recombinant p300): only poorly (or not at all) inhibited
DNMT3a inhibition (in words) (human DNMT3a): inactive
DNMT3b inhibition (in words) [2]: inactive
Kd (G9a [3]): 63800 ± 950 nM
α Ki, noncompetitive against SAM (human recombinant G9a [4]): 1.1 ± 0.2 nM
chemical stability (HPLC) [5]: did not decompose
cell toxicity (MTT), MCF-7 (MCF-7 cells): slight progressive increase of toxicity after 48 and 72 h
cell toxicity (MTT), MDA-MB-231 (MDA-MB-231 cells): did not significantly reduce the number of metabolically active MDA-MB-231 or U-343 cells
cell toxicity (MTT), U-343 (U-343 cells): did not significantly reduce the number of metabolically active MDA-MB-231 or U-343 cells
dimethylation of lysine H3K9 (H3K9me2), MCF-7 [6]: marked and both concentration- and time-dependent reduction
dimethylation of lysine H3K9 (H3K9me2), MDA-MB-231 [7]: marked and both concentration- and time-dependent reduction
dimethylation of lysine H3K9 (H3K9me2), U-343 [8]: marked and both concentration- and time-dependent reduction

COc1cc2c(cc1OCCCN1CCCC1)N=C(c1ccccc1)CN=C2NC1CCN(C(C)C)CC1 [12b, N-(1-Isopropylpiperidin-4-yl)-7-methoxy-2-phenyl-8-(3-(pyrrolidin-1-yl)propoxy)-3H-benzo[e][1,4]diazepin-5-amine]
fold reduction of G9a inhibitory activity compared to 12a (human recombinant G9a [1]): approximately 50 fold

COc1cc2c(cc1OCCCN1CCCC1)NC(C1CCCCC1)CN=C2NC1CCN(C(C)C)CC1 (centres unmarked) [13a, 2-Cydohexyl-N-(1-isopropylpiperidin-4-yl)-7-methoxy-8-(3-(pyrrolidin-1-yl)propoxy)-2,3-dihydro-1H-benzo[e][1,4]-diazepin-5-amine]
fold reduction of G9a inhibitory activity compared to 12a (human recombinant G9a [1]): approximately 50 fold

COc1cc2c(cc1OCCCN1CCCC1)NC(c1ccccc1)CN=C2NC1CCN(C(C)C)CC1 (centres unmarked) [13b, N-(1-Isopropylpiperidin-4-yl)-7-methoxy-2-phenyl-8-(3-(pyrrolidin-1-yl)propoxy)-2,3-dihydro-1H-benzo[e][1,4]-diazepin-5-amine]
fold reduction of G9a inhibitory activity compared to 12a (human recombinant G9a [1]): 100 fold

COc1cc2nc(N3CCCN(C)CC3)nc(NC3CCN(Cc4ccccc4)CC3)c2cc1OC [compound 3]
activity against SUV39H1(H320R) [9]: basically inactive
activity against PRMT1 [10]: basically inactive

COc1cc2c(NC3CCN(C)CC3)nc(N3CCCN(C)CC3)nc2cc1OCCOCCN(C)C [compound 5]
Ki (G9a [11]): 0.063 nM
IC50 (G9a [12]): 9 nM

COc1cc2c(NC3CCN(C(C)C)CC3)nc(C3CCCCC3)nc2cc1OCCCN1CCCC1 [compound 7]
Hill slope of the concentration–response inhibition curve of G9a (human recombinant G9a [1]): −1.3
Papp at 24 h, 0.2 mM [13]: 0.049 ×10⁻⁶ cm/s
activity against other lysine and arginine methyltransferases [14]: inactive
Papp at 24 h, 0.2 mM (in vitro): 0.019 ×10⁻⁶ cm/s

CCCCCCNc1nc(NC2CCN(C)CC2)c2cc(OC)c(OC)cc2n1 [compound 9]
selectivity for GLP over G9a (GLP over G9a): > 140 fold

COc1cc2c(cc1OCCCN1CCCC1)N=C(C1CCCCC1)CC(NC1CCN(C(C)C)CC1)=N2 [compound 14, 4-Cyclohexyl-N-(1-isopropylpiperidin-4-yl)-8-methoxy-7-(3-(pyrrolidin-1-yl)propoxy)-3H-benzo[b][1,4]diazepin-2-amine]
fold reduction of G9a inhibitory activity compared to 12a (human recombinant G9a [1]): 130 fold
